Test results from patent publication US9023789B2, “Amylin analogs and pharmaceutical compositions thereof” (Novo Nordisk A/S, priority 2012, dated 2015).
Numbered stars: 1 amine (or outer) side, 2 acyl side, 3 side chain; on linkers, the order of the positions; unused ones are H or OH. Bridge positions count the residues as written; N and C are the ends. Side chains are listed from the residue outwards. Peptide text beside a SMILES is read from it. * marks the point of attachment. C20 diacid = O=C(O)CCCCCCCCCCCCCCCCCCC(=O)*; γGlu = O=C(O)[C@H](CCC(=O)[*:2])N[*:1]; AEEA = NCCOCCOCC(=O)O

What was measured:
[1] = target: T1, human amylin 3(a) receptor (human calcitonin receptor + RAMP-3) in BHK570 cells (Homo sapiens, UniProt O60896+P30988); assay: ASSAY (II)a functional assay, human amylin receptor (CRE luciferase); format: cell-based; conditions: for EC50: human amylin receptor functional potency, assay (II), read-out: hAmylin-R funct. EC50
T1 construct: expressed in transfected cells
Outline: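 Functional agonism was measured by CRE-luciferase reporter luminescence in BHK cells bearing calcitonin receptor, or calcitonin receptor plus RAMP-3 as the amylin 3(a) receptor. Stimulation lasted 3 hours at 37° C.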

[2] = ASSAY (III) ThT fibrillation assay for physical stability; format: physicochemical
Outline: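 Physical stability scored by ThT fluorescence (444 nm excitation, 485 nm emission) tracked every 20 min during 37 °C incubation with 960 rpm shaking, ThT at 1 μM final. Values are replicate means with SD at chosen times; HPLC against pramlintide standard gives initial and post-assay soluble concentrations.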

Sprague Dawley (SD) rats = assay: ASSAY (I) efficacy testing on appetite (food intake) using an ad libitum fed rat model; format: in vivo; conditions: rat, 30 nmol/kg
Outline: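 Individual food consumption was logged each hour up to 7 h and again at 24 h, occasionally 48 h, with Grubbs-test outliers removed. Each 200–250 g Sprague Dawley rat, free-feeding in its home cage under reversed lighting, received a single ip, po or sc dose of 0.01–3 mg/kg at lights-off, alongside a vehicle group.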

[3] = hCTR funct. EC50 divided by hAmylin-R funct. EC50
[4] = hCTR funct. EC50 over hAmylin-R funct. EC50
[5] = human functional selectivity: hCTR funct. EC50 / hAmylin-R funct. EC50

T1 sequence (O60896 24-148): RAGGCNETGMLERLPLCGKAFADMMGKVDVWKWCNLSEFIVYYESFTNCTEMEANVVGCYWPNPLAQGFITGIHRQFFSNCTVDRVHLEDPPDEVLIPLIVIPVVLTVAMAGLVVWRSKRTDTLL
T1 sequence (P30988 25-474): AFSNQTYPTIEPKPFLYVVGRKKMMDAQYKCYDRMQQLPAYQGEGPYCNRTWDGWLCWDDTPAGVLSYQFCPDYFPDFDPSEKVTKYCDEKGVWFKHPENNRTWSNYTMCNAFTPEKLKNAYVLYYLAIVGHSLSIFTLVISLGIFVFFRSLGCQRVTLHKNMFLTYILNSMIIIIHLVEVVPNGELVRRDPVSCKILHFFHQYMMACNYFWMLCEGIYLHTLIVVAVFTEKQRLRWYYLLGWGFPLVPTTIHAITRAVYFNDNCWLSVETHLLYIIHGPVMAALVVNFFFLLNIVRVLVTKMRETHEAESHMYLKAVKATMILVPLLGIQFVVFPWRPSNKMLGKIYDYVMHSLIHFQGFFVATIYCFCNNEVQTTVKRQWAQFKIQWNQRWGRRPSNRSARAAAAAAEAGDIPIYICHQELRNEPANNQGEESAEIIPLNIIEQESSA

SMILES	Ratio hCT/hAmylin funct. [1, 3]	Ratio hCT/hAmylin funct. [1, 4]	Ratio hCT/hAmylin funct. [1, 5]	ThT pH 4.0 lag time (h) [2] [h]	EC50 [1] [nM]	Food intake reduction 0-24 h 30 nmol/kg (%) (Sprague Dawley (SD) rats)	Food intake reduction 24-48 h 30 nmol/kg (%) (Sprague Dawley (SD) rats)
CC[C@H](C)[C@H](NC(=O)[C@H](C)NC(=O)CNC(=O)[C@H](Cc1ccccc1)NC(=O)[C@H](CC(N)=O)NC(=O)[C@@H]1CCCN1C(=O)[C@H](CO)NC(=O)[C@H](CO)NC(=O)[C@H](Cc1c[nH]cn1)NC(=O)[C@H](CCCNC(=N)N)NC(=O)[C@H](CC(C)C)NC(=O)[C@H](Cc1ccccc1)NC(=O)[C@H](CC(N)=O)NC(=O)[C@H](C)NC(=O)[C@H](CC(C)C)NC(=O)[C@H](CCCNC(=N)N)NC(=O)[C@H](CCC(N)=O)NC(=O)[C@@H](NC(=O)[C@H](C)NC(=O)[C@@H]1CSSC[C@H](NC(=O)[C@@H](N)CCCCNC(=O)CC[C@H](NC(=O)CCCCCCCCCCCCCCCCC(=O)O)C(=O)O)C(=O)N[C@@H](CC(N)=O)C(=O)N[C@@H]([C@@H](C)O)C(=O)N[C@@H](C)C(=O)N[C@@H]([C@@H](C)O)C(=O)N1)[C@@H](C)O)C(=O)N1CCC[C@H]1C(=O)N[C@@H](CO)C(=O)N[C@@H](CO)C(=O)N[C@H](C(=O)N[C@@H](CC(N)=O)C(=O)N[C@H](C(=O)NCC(=O)N[C@@H](Cc1c[nH]cn1)C(=O)N[C@@H](CC(N)=O)C(=O)N[C@H](C(=O)N[C@@H](Cc1ccc(O)cc1)C(N)=O)[C@@H](C)O)C(C)C)[C@@H](C)O [Example 113]	60.9	60.9	60.9	45		48	2
CC[C@H](C)[C@H](NC(=O)[C@H](C)NC(=O)CNC(=O)[C@H](Cc1ccccc1)NC(=O)[C@H](CC(N)=O)NC(=O)[C@@H]1CCCN1C(=O)[C@H](CO)NC(=O)[C@H](CO)NC(=O)[C@H](Cc1c[nH]cn1)NC(=O)[C@H](CCCNC(=N)N)NC(=O)[C@H](CC(C)C)NC(=O)[C@H](Cc1ccccc1)NC(=O)[C@H](CCC(=O)O)NC(=O)[C@H](C)NC(=O)[C@H](CC(C)C)NC(=O)[C@H](CCCNC(=N)N)NC(=O)[C@H](CCC(N)=O)NC(=O)[C@@H](NC(=O)[C@H](C)NC(=O)[C@@H]1CSSC[C@H](NC(=O)[C@@H](N)CCCCNC(=O)CC[C@H](NC(=O)CC[C@H](NC(=O)CCCCCCCCCCCCCCCCCCC(=O)O)C(=O)O)C(=O)O)C(=O)N[C@@H](CC(N)=O)C(=O)N[C@@H]([C@@H](C)O)C(=O)N[C@@H](C)C(=O)N[C@@H]([C@@H](C)O)C(=O)N1)[C@@H](C)O)C(=O)N1CCC[C@H]1C(=O)N[C@@H](CO)C(=O)N[C@@H](CO)C(=O)N[C@H](C(=O)N[C@@H](CC(N)=O)C(=O)N[C@H](C(=O)NCC(=O)N1CCC[C@H]1C(=O)N[C@@H](Cc1c[nH]cn1)C(=O)N[C@H](C(=O)N[C@@H](Cc1ccc(O)cc1)C(N)=O)[C@@H](C)O)C(C)C)[C@@H](C)O [Example 124] (H-K([γGlu-γGlu-C20 diacid])CNTATCATQRLAEFLRHSSPNFGAIPSSTNVGPHTY-NH2; disulfide 2-7 (inferred))	16.4	16.4	16.4	45		73	38
CC[C@H](C)[C@H](NC(=O)[C@H](C)NC(=O)CNC(=O)[C@H](Cc1ccccc1)NC(=O)[C@H](CC(N)=O)NC(=O)[C@@H]1CCCN1C(=O)[C@H](CO)NC(=O)[C@H](CO)NC(=O)[C@H](Cc1c[nH]cn1)NC(=O)[C@H](CCCNC(=N)N)NC(=O)[C@H](CC(C)C)NC(=O)[C@H](Cc1ccccc1)NC(=O)[C@H](Cc1c[nH]cn1)NC(=O)[C@H](C)NC(=O)[C@H](CC(C)C)NC(=O)[C@H](CCCNC(=N)N)NC(=O)[C@H](CCC(N)=O)NC(=O)[C@@H](NC(=O)[C@H](C)NC(=O)[C@@H]1CSSC[C@H](NC(=O)[C@@H](N)CCCCNC(=O)COCCOCCNC(=O)CC[C@H](NC(=O)CCCCCCCCCCCCCCCCCCC(=O)O)C(=O)O)C(=O)N[C@@H](CC(N)=O)C(=O)N[C@@H]([C@@H](C)O)C(=O)N[C@@H](C)C(=O)N[C@@H]([C@@H](C)O)C(=O)N1)[C@@H](C)O)C(=O)N1CCC[C@H]1C(=O)N[C@@H](CO)C(=O)N[C@@H](CO)C(=O)N[C@H](C(=O)N[C@@H](CC(N)=O)C(=O)N[C@H](C(=O)NCC(=O)N1CCC[C@H]1C(=O)N[C@@H](CC(N)=O)C(=O)N[C@H](C(=O)N[C@@H](Cc1ccc(O)cc1)C(N)=O)[C@@H](C)O)C(C)C)[C@@H](C)O [Example 68] (H-K([AEEA-γGlu-C20 diacid])CNTATCATQRLAHFLRHSSPNFGAIPSSTNVGPNTY-NH2; disulfide 2-7)	17.4	17.4	17.4	24		33	0

The next lines start with results.

Ratio hCT/hAmylin funct. [1, 3]	Ratio hCT/hAmylin funct. [1, 4]	Ratio hCT/hAmylin funct. [1, 5]	ThT pH 4.0 lag time (h) [2] [h]	EC50 [1] [nM]	SMILES	Food intake reduction 0-24 h 30 nmol/kg (%) (Sprague Dawley (SD) rats)	Food intake reduction 24-48 h 30 nmol/kg (%) (Sprague Dawley (SD) rats)
32.5	32.5	32.5	45	0.169	CC[C@H](C)[C@H](NC(=O)[C@H](C)NC(=O)CNC(=O)[C@H](Cc1ccccc1)NC(=O)[C@H](CC(N)=O)NC(=O)[C@@H]1CCCN1C(=O)[C@H](CO)NC(=O)[C@H](CO)NC(=O)[C@H](Cc1c[nH]cn1)NC(=O)[C@H](CCCNC(=N)N)NC(=O)[C@H](CC(C)C)NC(=O)[C@H](Cc1ccccc1)NC(=O)[C@H](Cc1c[nH]cn1)NC(=O)[C@H](C)NC(=O)[C@H](CC(C)C)NC(=O)[C@H](CCCNC(=N)N)NC(=O)[C@H](CCC(N)=O)NC(=O)[C@@H](NC(=O)[C@H](C)NC(=O)[C@@H]1CSSC[C@H](NC(=O)[C@@H](N)CCCCNC(=O)COCCOCCNC(=O)CC[C@H](NC(=O)CCCCCCCCCCCCCCCCCCC(=O)O)C(=O)O)C(=O)N[C@@H](CC(N)=O)C(=O)N[C@@H]([C@@H](C)O)C(=O)N[C@@H](C)C(=O)N[C@@H]([C@@H](C)O)C(=O)N1)[C@@H](C)O)C(=O)N1CCC[C@H]1C(=O)N[C@@H](CO)C(=O)N[C@@H](CO)C(=O)N[C@H](C(=O)N[C@@H](CC(N)=O)C(=O)N[C@H](C(=O)NCC(=O)N[C@@H](CCCNC(=N)N)C(=O)N[C@@H](CC(N)=O)C(=O)N[C@H](C(=O)N[C@@H](Cc1ccc(O)cc1)C(N)=O)[C@@H](C)O)C(C)C)[C@@H](C)O [Example 84] (H-K([AEEA-γGlu-C20 diacid])CNTATCATQRLAHFLRHSSPNFGAIPSSTNVGRNTY-NH2; disulfide 2-7 (inferred); N-terminus assumed)	10	0
6.5	6.5	6.5	45	0.421	CC[C@H](C)[C@H](NC(=O)[C@H](C)NC(=O)CNC(=O)[C@H](Cc1ccccc1)NC(=O)[C@H](CC(N)=O)NC(=O)[C@@H]1CCCN1C(=O)[C@H](CO)NC(=O)[C@H](CO)NC(=O)[C@H](Cc1c[nH]cn1)NC(=O)[C@H](CCCNC(=N)N)NC(=O)[C@H](CC(C)C)NC(=O)[C@H](Cc1ccccc1)NC(=O)[C@H](CCC(=O)O)NC(=O)[C@H](C)NC(=O)[C@H](CC(C)C)NC(=O)[C@H](CCCNC(=N)N)NC(=O)[C@H](CCC(N)=O)NC(=O)[C@@H](NC(=O)[C@H](C)NC(=O)[C@@H]1CSSC[C@H](NC(=O)[C@@H](N)CCCCNC(=O)CC[C@H](NC(=O)CCCCCCCCCCCCCCCCCCC(=O)O)C(=O)O)C(=O)N[C@@H](CC(N)=O)C(=O)N[C@@H]([C@@H](C)O)C(=O)N[C@@H](C)C(=O)N[C@@H]([C@@H](C)O)C(=O)N1)[C@@H](C)O)C(=O)N1CCC[C@H]1C(=O)N[C@@H](CO)C(=O)N[C@@H](CO)C(=O)N[C@H](C(=O)N[C@@H](CC(N)=O)C(=O)N[C@H](C(=O)NCC(=O)N[C@@H](CCCNC(=N)N)C(=O)N[C@@H](CCC(=O)O)C(=O)N[C@H](C(=O)N[C@@H](Cc1ccc(O)cc1)C(N)=O)[C@@H](C)O)C(C)C)[C@@H](C)O [Example 108] (H-K([γGlu-C20 diacid])CNTATCATQRLAEFLRHSSPNFGAIPSSTNVGRETY-NH2; disulfide 2-7; N-terminus assumed)	29	0
6.0	6.0	6.0	45		CC[C@H](C)[C@H](NC(=O)[C@H](C)NC(=O)CNC(=O)[C@H](Cc1ccccc1)NC(=O)[C@H](CC(N)=O)NC(=O)[C@@H]1CCCN1C(=O)[C@H](CO)NC(=O)[C@H](CO)NC(=O)[C@H](Cc1c[nH]cn1)NC(=O)[C@H](CCCNC(=N)N)NC(=O)[C@H](CC(C)C)NC(=O)[C@H](Cc1ccccc1)NC(=O)[C@H](CC(N)=O)NC(=O)[C@H](C)NC(=O)[C@H](CC(C)C)NC(=O)[C@H](CCCNC(=N)N)NC(=O)[C@H](CCC(N)=O)NC(=O)[C@@H](NC(=O)[C@H](C)NC(=O)[C@@H]1CSSC[C@H](NC(=O)[C@H](CCCNC(=N)N)NC(=O)CNC(=O)CC[C@H](NC(=O)CCCCCCCCCCCCCCCCCCC(=O)O)C(=O)O)C(=O)N[C@@H](CC(N)=O)C(=O)N[C@@H]([C@@H](C)O)C(=O)N[C@@H](C)C(=O)N[C@@H]([C@@H](C)O)C(=O)N1)[C@@H](C)O)C(=O)N1CCC[C@H]1C(=O)N[C@@H](CO)C(=O)N[C@@H](CO)C(=O)N[C@H](C(=O)N[C@@H](CC(N)=O)C(=O)N[C@H](C(=O)NCC(=O)N[C@@H](CO)C(=O)N[C@@H](Cc1c[nH]cn1)C(=O)N[C@H](C(=O)N[C@@H](Cc1ccc(O)cc1)C(N)=O)[C@@H](C)O)C(C)C)[C@@H](C)O [Example 47] ({C20 diacid-γGlu}-GRCNTATCATQRLANFLRHSSPNFGAIPSSTNVGSHTY-NH2; disulfide 3-8)	51	0
